Values joined by “and” are separate entries in the source; they are usually repeats but may differ in a detail not shown here. Identical values can stand only once.
How the values were obtained:
[1] = test system: Litomosoides sigmodontis third-stage larvae; experiment: Litomosoides sigmodontis (LTMOSI L3) larval motility; conditions: 72 h, read-out: EC50 (reduction of motility)
Protocol: In Vitro Assay 6: Litomosoides sigmodontis (LTMOSI L3)
10 Litomosoides sigmodontis third-stage larvae, which were freshly isolated from the pleural cavity of an infected rodent, were added to wells of a microtitre plate containing a nutrient medium and the test compound in DMSO. Compounds were tested in concentration-response assay in duplicate. Larvae exposed to DMSO and no test compounds were used as negative controls. Larvae were evaluated after 72 h of incubation with the compound. Efficacy was determined as the reduction of motility in comparison to the negative control. Based on the evaluation of a wide concentration range, concentration-response curves as well as EC50-values were calculated.

[2] = test system: Nippostrongylus brasiliensis; experiment: Nippostrongylus brasiliensis (NIPOBR) adult worms, acetylcholine esterase readout; conditions: read-out: activity (reduction of AChE compared to negative control); for inhibition at 1 µg/mL: at 1 μg/ml (1 ppm); for inhibition at 10 µg/mL: at 10 μg/ml (10 ppm)
Protocol: In Vitro Assay 3: Nippostrongylus brasiliensis (NIPOBR)
Adult Nippostrongylus brasiliensis were washed with saline buffer containing 100 U/ml penicillin, 0.1 mg/ml streptomycin and 2.5 μg/ml amphotericin B. Test compounds were dissolved in DMSO and worms were incubated in medium in a final concentration of 10 μg/ml (10 ppm) respectively 1 μg/ml (1 ppm). An aliquot of the medium was used to determine the acetylcholine esterase activity in comparison to a negative control. The principle of measuring acetylcholine esterase as readout for anthelmintic activity was described in Rapson et al (1986) and Rapson et al (1987).

[3] = target: D. immitis Slo-1 (Dirofilaria immitis, UniProt I0DFK5); experiment: D. immitis Slo-1, action at a recombinant CHO cell line (membrane potential, FLIPR); format: cell-based
[4] = test system: Cooperia curticei; experiment: Cooperia curticei larval mortality; conditions: 120 h, read-out: activity (percentage of larval mortality)
Protocol: In Vitro Assay 6: Cooperia curticei
Solvent: Dimethyl Sulfoxide
Approximately 40 nematode larvae (Cooperia curticei) are transferred into a test tube containing the compound solution.
After 5 days percentage of larval mortality is recorded. 100% efficacy means all larvae are killed; 0% efficacy means no larvae are killed.

[5] = target: C. elegans Slo-1a (Caenorhabditis elegans, UniProt Q95V25); conditions: pE50 (negative decadic logarithm of EC50), CHO cells expressing C. elegans Slo-1a; voltage sensitive dye, 70 mM KCl
Protocol: Generation of a Stable C. elegans CHO Cell Line
A CHO cell line was obtained from ATCC, code ATCC CRL-9096. […] The transfection solution included 300 μL OptiMEM (Life Technologies, Nr.: 31985), 2 μL (=6 μg) of plasmid DNA containing the C. elegans Slo 1a gene and 9 μL FugeneHD (Promega, Nr.: E2311), and was added to the cells prior to incubation for 48 hours at 37° C., 5% CO2. The transfection medium was exchanged for the selection medium which contains additional G418 (2 mg/ml, Invitrogen, Nr.: 10131) and the cells were seeded into 384 well plates (300 cells/well). After a few weeks, the remaining surviving cells were tested with a voltage sensitive dye (Membrane Potential Assay Kit, Molecular Devices Nr.: R8034) for K+ channel expression. Positive cell clones were purified by the limited dilution technique. For this the clone with the highest and most robust signal in the voltage sensitive dye assay was further subcloned (incubated) in 384 well plates (0.7 cells/well) in order to obtain clonal purity. This generated a final stable CHO cell line expressing the C. elegans Slo-1a.
Cells were cultured at 37° C. and 5% CO2 in MEMalpha with Gutamax I (Invitrogen, Nr.: 32571), supplemented with 10% (v/v) heat inactivated fetal bovine serum (Invitrogen, Nr.: 10500), G418 (1 mg/ml, Invitrogen, Nr.: 10131). Cells were detached using Accutase (Sigma, Nr.: A6964).
Membrane Potential Measurements
Laboratory compound testing was performed on 384-well microtiter plates (MTPs, Greiner, Nr.: 781092). 8000 cells/well were plated onto 384-well MTPs and cultured for 20 to 24 hours at 37° C. and 5% CO2. After removal of the cell culture medium, the cells were washed once with tyrode (150 mM NaCl, 0.3 mM KCl, 2 mM CaCl2, 1 mM MgCl2, 0.8 mM NaH2PO4, 5 mM Glucose, 28 mM Hepes, pH 7.4) and then loaded with the voltage sensitive dye of the Membrane Potential Assay Kit diluted in tyrode for 1 h at room temperature.
After starting the measurement of fluorescence using a FLIPR Tetra (Molecular Devices, Exc. 510-545 nm, Emm. 565-625 nm), test compounds were added followed by the addition of KCl tyrode (final assay concentration: 70 mM KCl, 2 mM CaCl2, 1 mM MgCl2, 0.8 mM NaH2PO4, 5 mM Glucose, 28 mM Hepes, pH 7.4, including the voltage sensitive dye). The measurement was completed after 7 minutes.
The data were evaluated by using the ActivityBase XLfit software (IDBS) for curve fitting and calculation of the half-maximal effective concentration (EC50) and are reported as negative decadic logarithm (pE50).

[6] = test system: Dirofilaria immitis; experiment: Dirofilaria immitis (DIROIM L4) larval motility; conditions: 72 h, read-out: EC50 (reduction of motility)
[7] = test system: Haemonchus contortus; experiment: Haemonchus contortus larval mortality; conditions: 120 h, read-out: activity (percentage of larval mortality)
Protocol: In Vitro Assay 7: Haemonchus contortus
Solvent: Dimethyl Sulfoxide
Approximately 40 larvae of the red stomach worm (Haemonchus contortus) are transferred into a test tube containing compound solution.
After 5 days the percentage of larval mortality is recorded. 100% efficacy means all larvae are killed, 0% efficacy means no larvae are killed.

[8] = test system: Dirofilaria immitis microfilariae; experiment: Dirofilaria immitis microfilariae (DIROIM L1) motility; conditions: 72 h, read-out: EC50 (reduction of motility)

Chain of C. elegans Slo-1a (Q95V25 whole entry): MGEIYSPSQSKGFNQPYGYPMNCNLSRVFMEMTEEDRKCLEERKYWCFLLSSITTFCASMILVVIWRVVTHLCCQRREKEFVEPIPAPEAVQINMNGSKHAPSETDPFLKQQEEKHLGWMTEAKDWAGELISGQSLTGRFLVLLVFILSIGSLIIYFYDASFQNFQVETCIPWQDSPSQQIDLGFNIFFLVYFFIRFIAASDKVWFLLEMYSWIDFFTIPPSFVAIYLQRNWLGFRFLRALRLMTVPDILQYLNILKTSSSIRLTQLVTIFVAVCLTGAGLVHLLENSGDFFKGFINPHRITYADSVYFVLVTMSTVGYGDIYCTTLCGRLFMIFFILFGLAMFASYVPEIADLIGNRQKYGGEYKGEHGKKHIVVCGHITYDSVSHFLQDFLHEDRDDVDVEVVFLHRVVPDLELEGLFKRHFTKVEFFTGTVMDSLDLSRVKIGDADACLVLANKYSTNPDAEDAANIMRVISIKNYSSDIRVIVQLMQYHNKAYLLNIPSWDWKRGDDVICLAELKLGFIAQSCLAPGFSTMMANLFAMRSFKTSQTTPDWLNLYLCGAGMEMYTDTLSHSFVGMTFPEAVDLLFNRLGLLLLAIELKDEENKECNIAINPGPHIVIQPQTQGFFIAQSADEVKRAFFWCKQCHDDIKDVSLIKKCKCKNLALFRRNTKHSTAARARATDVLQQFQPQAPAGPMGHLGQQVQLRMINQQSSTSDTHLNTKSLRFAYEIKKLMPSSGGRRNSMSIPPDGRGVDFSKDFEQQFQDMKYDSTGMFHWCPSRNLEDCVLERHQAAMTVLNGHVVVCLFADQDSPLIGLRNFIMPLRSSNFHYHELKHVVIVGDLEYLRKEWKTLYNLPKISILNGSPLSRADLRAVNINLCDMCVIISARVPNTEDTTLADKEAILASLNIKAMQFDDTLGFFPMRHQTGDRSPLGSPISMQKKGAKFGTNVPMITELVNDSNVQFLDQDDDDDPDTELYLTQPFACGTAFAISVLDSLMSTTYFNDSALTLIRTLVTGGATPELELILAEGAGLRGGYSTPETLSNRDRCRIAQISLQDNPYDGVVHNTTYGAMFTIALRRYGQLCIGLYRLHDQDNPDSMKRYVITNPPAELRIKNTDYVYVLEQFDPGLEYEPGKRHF
Chain of D. immitis Slo-1 (I0DFK5 1-1119): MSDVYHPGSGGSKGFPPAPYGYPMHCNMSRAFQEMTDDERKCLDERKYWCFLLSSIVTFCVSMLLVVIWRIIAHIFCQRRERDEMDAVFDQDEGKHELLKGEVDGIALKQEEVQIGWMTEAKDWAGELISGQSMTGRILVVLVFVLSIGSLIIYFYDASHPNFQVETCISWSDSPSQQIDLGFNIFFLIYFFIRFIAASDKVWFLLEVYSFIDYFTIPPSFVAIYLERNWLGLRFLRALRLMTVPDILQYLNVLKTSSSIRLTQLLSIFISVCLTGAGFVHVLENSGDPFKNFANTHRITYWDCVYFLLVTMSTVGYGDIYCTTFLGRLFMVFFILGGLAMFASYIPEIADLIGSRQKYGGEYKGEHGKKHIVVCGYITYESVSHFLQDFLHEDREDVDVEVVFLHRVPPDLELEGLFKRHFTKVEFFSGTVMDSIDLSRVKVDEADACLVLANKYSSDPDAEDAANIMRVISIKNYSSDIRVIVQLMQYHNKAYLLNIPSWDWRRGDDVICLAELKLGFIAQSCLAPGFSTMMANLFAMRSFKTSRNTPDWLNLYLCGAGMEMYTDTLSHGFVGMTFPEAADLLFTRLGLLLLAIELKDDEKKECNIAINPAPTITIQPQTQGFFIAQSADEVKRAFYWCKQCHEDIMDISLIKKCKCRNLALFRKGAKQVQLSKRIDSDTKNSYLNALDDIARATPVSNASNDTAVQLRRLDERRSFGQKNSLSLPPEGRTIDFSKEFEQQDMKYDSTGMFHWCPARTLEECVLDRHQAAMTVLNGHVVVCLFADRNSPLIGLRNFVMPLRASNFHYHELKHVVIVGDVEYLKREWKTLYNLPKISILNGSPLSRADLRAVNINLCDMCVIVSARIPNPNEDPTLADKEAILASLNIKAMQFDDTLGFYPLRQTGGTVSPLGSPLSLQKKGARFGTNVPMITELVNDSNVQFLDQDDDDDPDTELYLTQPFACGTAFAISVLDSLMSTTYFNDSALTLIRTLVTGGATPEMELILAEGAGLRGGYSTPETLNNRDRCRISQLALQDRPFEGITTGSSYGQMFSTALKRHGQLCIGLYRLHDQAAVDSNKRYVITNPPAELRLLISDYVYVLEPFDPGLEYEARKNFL

SMILES	EC50 [1] [µg/mL]	inhibition at 1 µg/mL [2] [%]	inhibition at 10 µg/mL [2] [%]	EC50 [3] [nM]	mortality at 4 ppm [4] [%]	mortality at 20 ppm [4] [%]	EC50 [5]	EC50 [6] [µg/mL]	mortality at 20 ppm [7] [%]	EC50 [8] [µg/mL]
O=C(N[C@H]1CCOc2ccccc21)c1cnc2c(-c3cc(F)cc(F)c3F)nccc2c1N1CCOCC1 [Example T1-5, N-[(4S)-3,4-dihydro-2H-1-benzopyran-4-yl]-4-(morpholin-4-yl)-8-(2,3,5-trifluorophenyl)-1,7-naphthyridine-3-carboxamide]	< 0.1	> 80	> 80	31.6 to 316	100	100	3.16 to 31.6 nM	< 0.1	80	< 0.1
CN(C)c1c(C(=O)N[C@H]2CCOc3ccccc32)cnc2c(-c3cc(Cl)cc(Cl)c3)nccc12 [Example T1-1, 8-(3,5-Dichlorophenyl)-N-[(4S)-3,4-dihydro-2H-chromen-4-yl]-4-(dimethylamino)-1,7-naphthyridine-3-carboxamide]	< 0.1	> 80		31.6 to 316	100	100	3.16 to 31.6 nM	< 0.1	100	< 0.1
O=C(N[C@H]1CCOc2ccccc21)c1cnc2c(-c3cccc(Cl)c3Cl)nccc2c1N1CCOCC1 [Example T1-4, 8-(2,3-Dichlorophenyl)-N-[(4S)-3,4-dihydro-2H-chromen-4-yl]-4-(morpholin-4-yl)-1,7-naphthyridine-3-carboxamide]	< 0.1	> 80	> 80	31.6 to 316	100		3.16 to 31.6 nM	< 0.1		< 0.1
CN(C)c1c(C(=O)N[C@H]2CCOc3ccccc32)cnc2c(-c3cc(Cl)cc(Cl)c3)ccnc12 [Example T3-1, 8-(3,5-Dichlorophenyl)-N-[(4S)-3,4-dihydro-2H-chromen-4-yl]-4-(dimethylamino)-1,5-naphthyridine-3-carboxamide]	< 0.1	> 80		3.16 to 31.6	100	100	3.16 to 31.6 nM and < 3.16 nM	< 0.1	100	< 0.1
COc1c(C(=O)N[C@H]2CCOc3ccccc32)nnc2c(-c3cccc(Cl)c3Cl)cccc12 [Example T5-7, 8-(2,3-Dichlorophenyl)-N-[(4S)-3,4-dihydro-2H-chromen-4-yl]-4-methoxycinnoline-3-carboxamide]	< 0.1	> 80		31.6 to 316	100	100	< 3.16 nM	< 0.1	90	< 0.1
COc1c(C(=O)N[C@H]2CCOc3ccccc32)nnc2c(-c3cc(Cl)cc(Cl)c3)cccc12 [Example T5-5, 8-(3,5-Dichlorophenyl)-N-[(4S)-3,4-dihydro-2H-chromen-4-yl]-4-methoxycinnoline-3-carboxamide]		> 80		31.6 to 316	80	80	3.16 to 31.6 nM	< 0.1	80	< 0.1
CN(C)c1c(C(=O)N[C@H]2CCOc3ccccc32)cnc2c(-c3cccc(Cl)c3Cl)c(F)cnc12 [Example T3-17, 8-(2,3-dichlorophenyl)-N-[(4S)-3,4-dihydro-2H-1-benzopyran-4-yl]-4-(dimethylamino)-7-fluoro-1,5-naphthyridine-3-carboxamide]	< 0.1	> 80	> 80	3.16 to 31.6				< 0.1		< 0.1
COc1cnc2c(N(C)C)c(C(=O)N[C@H]3CCOc4ccccc43)cnc2c1-c1cc(F)cc(F)c1F [Example T3-15, N-[(4S)-3,4-dihydro-2H-1-benzopyran-4-yl]-4-(dimethylamino)-7-methoxy-8-(2,3,5-trifluorophenyl)-1,5-naphthyridine-3-carboxamide]	< 0.1	> 80	> 80	3.16 to 31.6				< 0.1		< 0.1

Source: patent publication US11485733B2, “Azaquinoline derivatives” (BAYER ANIMAL HEALTH GMBH, priority 2017, dated 2022)
